Measurements from US4769369A, “Anti-allergy 1(2H)-phthalazinones” (Pennwalt Corporation, priority 1986, dated 1988).
Counter-ions that a name gives are not always drawn. One block for each compound: values may come before it.

Key:
[1] = test system: LTC4 induced contractions of the guinea pig ileum; assay: Guinea Pig Ileum Test: inhibition of LTC4-induced guinea pig smooth muscle contractions; assay type: cell-based; conditions: Cavia porcellus, 6 nanomoles LTC4
Method: Four replicate, small pieces of guinea pig ileum were suspended in Kreb's physiological salt solution in a 10 ml tissue bath to a gram tension of approximately 1.0. These pieces of tissue were then chemically stimulated with 6 microliters of purified leukotriene C4 (LTC4) yielding a final concentration in the bath of 6 nanomoles. Responses (tissue contraction) were measured isometrically using a Harvard transducer and a Beckman recorder. Upon addition of the LTC4, the tissue was allowed to sit for approximately 15-30 minutes to reach maximal stimulation. The test compound dissolved in a maximum volume of 100 microliters of either saline, dimethylsulfoxide or ethanol was then added to the tissue preparation and the change in gram tension was recorded.

bradykinin = assay: Rat Allergic Mediator Induced Dermal Vascular Permeability Test, bradykinin challenge; assay type: in vivo
Method: (§1) Ten minutes later, the animals are challenged by intradermally injecting 0.1 ml of a water solution of either serotonin (1 μg/ml), histamine (20 μg/ml) or bradykinin (10 μg/ml) into separate sites on the back. Five minutes following challenge the animals are killed, the skin retracted, and the mean diameter of the blue wheal and flare reaction is calculated as the difference in mean diameter between a saline control and the drug treated group, divided by the control diameter, and then multiplied times 100. Statistical analysis of the data is done using a Student T-test program. See Tables 4 (ip administration of test compound) and 5 (po administration of test compound) for results obtained with the rat allergic mediator induced dermal vascular permeability test. (Set: Serotonin; His: histamine; Bk: bradykinin)

serotonin = assay: Rat Allergic Mediator Induced Dermal Vascular Permeability Test, serotonin challenge; assay type: in vivo
Method: as §1

histamine = assay: Rat Allergic Mediator Induced Dermal Vascular Permeability Test, histamine challenge; assay type: in vivo
Method: as §1, with “See Tables 4 (ip administration of test compound) and 5 (po administration of test compound) for results obtained with the rat allergic mediator induced dermal vascular permeability test.” left out

[2] = test system: Active Anaphylaxis Response in Male, Sprague Dawley Rats; assay: Rat Anaphylaxis Test (active anaphylaxis, paw edema); assay type: in vivo; conditions: for Paw Volume Mean ± S.E.: in mmHg (unit assumed)
Method: In the rat anaphylaxis test, groups consisting of 15-20 rats are intraperitoneally sensitized on day zero with 500 μg of bovine serum albumin-absorbed alum admixed with 2×10^10 killed Bordatella pertussis vaccine organisms. Fourteen days later, the test compound suspended in 0.5 to 1.0 ml of 1% Cleargel or saline (0.85% NaCl in H2 O) is administered ip or po and, one hour later, the right hind paw is injected subcutaneously with 100 μg of bovine serum albumin dissolved in 0.1 ml of saline. The paw volume is measured using a mercury plethysmometer prior to drug administration and 90 minutes post antigenic challenge. The present inhibition of edema is calculated as the difference in volume between the control and drug treated groups, divided by the control volume, and then multiplied times 100. The positive control drug, theophylline (90 mg/kg, po) is included in each assay. Statistical analysis of the data is done using an analysis of variance program. See Tables 2 and 3 for results obtained with this test.
In Tables 2 and 3, and elsewhere in this application, PR 948-257C stands for trans-6-[2-(4-methoxyphenyl)ethenyl]-2-[3-(dimethylamino)propyl]-phthalazin-1(2H)-one hydrobromide.

[3] = Table 4 (ip administration of test compound), 1 mg/kg
[4] = Table 5 (po administration of test compound), 1 mg/kg
[5] = Table 2, first group set, 50 mg/kg ip
[6] = Table 2, first group set, 75 mg/kg ip
[7] = Table 2, first group set, 100 mg/kg ip
[8] = Table 2, second group set, 6.25 mg/kg ip
[9] = Table 2, second group set, 12.5 mg/kg ip
[10] = Table 2, second group set, 25 mg/kg ip
[11] = Table 2, third group set, 2.5 mg/kg ip
[12] = Table 2, third group set, 4 mg/kg ip
[13] = Table 2, third group set, 6 mg/kg ip
[14] = Table 2, first group set, 90 mg/kg po, N 17
[15] = Table 2, second group set, 90 mg/kg po, N 20
[16] = Table 2, third group set, 90 mg/kg po, N 29

SMILES: COc1ccc(/C=C/c2ccc3c(=O)n(CCN4CCOCC4)ncc3c2)cc1 [Example IV, Trans-6-[2-(4-methoxyphenyl)ethenyl]-2-(2-morpholinoethyl)phthalazin-1(2H)-one hydrobromide]
IC50 [1]: 0.1 µM

SMILES: CN1CCC(=C2c3ccccc3C=Cc3ccccc32)CC1 [Cyproheptadine, cyproheptadine, reference compound]
% Inhibition, Bk (bradykinin; [3]): 60.6%
Wheal Measurement, Bk (bradykinin; [3]): 4.3 mm
% Inhibition, Bk (bradykinin; [4]): 86.8%
Wheal Measurement, Bk (bradykinin; [4]): 1.2 mm
% Inhibition, Ser (serotonin; [3]): 74.8%
Wheal Measurement, Ser (serotonin; [3]): 2.8 mm
% Inhibition, Ser (serotonin; [4]): 95.1%
Wheal Measurement, Ser (serotonin; [4]): 0.5 mm

SMILES: COc1ccc(/C=C/c2ccc3c(=O)n(CCN(C)C)ncc3c2)cc1 [Example III, Trans-6-[2-(4-methoxyphenyl)ethenyl]-2-[2-(dimethylamino)ethyl]-phthalazin-1(2H)-one hydrobromide]
IC50 [1]: 16.6 µM

SMILES: COc1ccc(/C=C\c2ccc3c(=O)n(CCCN(C)C)ncc3c2)cc1 [Example X, Cis-6-[2-(4-methoxyphenyl)ethenyl]-2-[3-dimethylaminopropyl]phthalazin-1(2H)-one cyclohexylsulfamate]
IC50 [1]: 10.5 µM

SMILES: Cn1c(=O)c2[nH]cnc2n(C)c1=O [Theophylline, theophylline, reference compound]
% Inhibition [2, 14]: 76%
Paw Volume Mean ± S.E. [2, 14]: 0.9 ± 0.7
% Inhibition [2, 15]: 92%
Paw Volume Mean ± S.E. [2, 15]: 0.4 ± 0.6
% Inhibition [2, 16]: 87%
Paw Volume Mean ± S.E. [2, 16]: 0.5 ± 0.5
% Inhibition ([2]; Table 3, 90 mg/kg po): 82%
Paw Volume ± S.E. ([2]; Table 3, 90 mg/kg po): 0.65 ± .2 mm of Hg

SMILES: COc1ccc(CCc2ccc3c(=O)n(CCCN(C)C)ncc3c2)cc1 [Example VI, 6-[2-(4-methoxyphenyl)ethyl]-2-[3-(dimethylamino)propyl]phthalazin-1(2H)-on]
IC50 [1]: 16.8 µM

Second part, led by results:

IC50 [1]: 10 µM
SMILES: CSc1ccc(/C=C/c2ccc3c(=O)n(CCCN(C)C)ncc3c2)cc1 [Example XI, Trans-6-[2-[4-(methylthio)phenyl]ethenyl]-2-[3-(dimethylamino)propyl]phthalazin-1(2H)-one]

IC50 [1]: 3.4 µM
SMILES: COc1ccc(/C=C/c2ccc3c(=O)n(CCCN4CCCCC4)ncc3c2)cc1 [Example II, Trans-6-[2-(4-methoxyphenyl)ethenyl]-2-(3-piperidinopropyl)phthalazin-1(2H)-one hydrobromide]

IC50 [1]: 31.6 µM
SMILES: CN(C)CCn1ncc2cc(/C=C/c3ccc(O)cc3)ccc2c1=O [Example XIV, Trans-6-[2-(4-Hydroxyphenyl)ethenyl]-2-(2-dimethylaminoethyl)-1(2H)-phthalazinone hydrochloride]

IC50 [1]: 13.6 µM
SMILES: Br.COc1ccc(/C=C/c2ccc3c(=O)n(CCCN(C)C)ncc3c2)cc1 [Example XII, Trans-6-[2-(4-methoxyphenyl)ethenyl]-2-[3-(dimethylamino)propyl]-phthalazin-1(2H)-one hydrobromide]
% Inhibition, His (histamine; Table 4, 12.5 mg/kg ip): 26.8%
Wheal Measurement, His (histamine; Table 4, 12.5 mg/kg ip): 8.2 mm
% Inhibition, His (histamine; Table 4, 25 mg/kg ip): 50.0%
Wheal Measurement, His (histamine; Table 4, 25 mg/kg ip): 5.6 mm
% Inhibition, His (histamine; Table 4, 50 mg/kg ip): 75.9%
Wheal Measurement, His (histamine; Table 4, 50 mg/kg ip): 2.7 mm
% Inhibition, His (histamine; Table 5, 12.5 mg/kg po): 17%
Wheal Measurement, His (histamine; Table 5, 12.5 mg/kg po): 8.3 mm
% Inhibition, His (histamine; Table 5, 25 mg/kg po): 57%
Wheal Measurement, His (histamine; Table 5, 25 mg/kg po): 4.3 mm
% Inhibition, His (histamine; Table 5, 50 mg/kg po): 71%
Wheal Measurement, His (histamine; Table 5, 50 mg/kg po): 2.9 mm
% Inhibition, Bk (bradykinin; Table 4, 12.5 mg/kg ip): 32.1%
Wheal Measurement, Bk (bradykinin; Table 4, 12.5 mg/kg ip): 7.4 mm
% Inhibition, Bk (bradykinin; Table 4, 25 mg/kg ip): 47.7%
Wheal Measurement, Bk (bradykinin; Table 4, 25 mg/kg ip): 5.7 mm
% Inhibition, Bk (bradykinin; Table 4, 50 mg/kg ip): 74.3%
Wheal Measurement, Bk (bradykinin; Table 4, 50 mg/kg ip): 2.8 mm
% Inhibition, Bk (bradykinin; Table 5, 12.5 mg/kg po): 12.1%
Wheal Measurement, Bk (bradykinin; Table 5, 12.5 mg/kg po): 8.0 mm
% Inhibition, Bk (bradykinin; Table 5, 25 mg/kg po): 48.4%
Wheal Measurement, Bk (bradykinin; Table 5, 25 mg/kg po): 4.7 mm
% Inhibition, Bk (bradykinin; Table 5, 50 mg/kg po): 63.8%
Wheal Measurement, Bk (bradykinin; Table 5, 50 mg/kg po): 3.3 mm
% Inhibition [2, 5]: 56%
Paw Volume Mean ± S.E. [2, 5]: 1.7 ± 1.3
% Inhibition [2, 6]: 83%
Paw Volume Mean ± S.E. [2, 6]: 0.7 ± 0.8
% Inhibition [2, 7]: 91%
Paw Volume Mean ± S.E. [2, 7]: 0.4 ± 0.8
% Inhibition [2, 8]: 48%
Paw Volume Mean ± S.E. [2, 8]: 2.2 ± 1.9
% Inhibition [2, 9]: 52%
Paw Volume Mean ± S.E. [2, 9]: 2.1 ± 1.8
% Inhibition [2, 10]: 55%
Paw Volume Mean ± S.E. [2, 10]: 1.9 ± 1.4
% Inhibition [2, 11]: +11%
Paw Volume Mean ± S.E. [2, 11]: 4.7 ± 2.8
% Inhibition [2, 12]: +14%
Paw Volume Mean ± S.E. [2, 12]: 4.9 ± 2.3
% Inhibition [2, 13]: 12%
Paw Volume Mean ± S.E. [2, 13]: 3.7 ± 2.6
% Inhibition ([2]; Table 3, 50 mg/kg po): 14%
Paw Volume ± S.E. ([2]; Table 3, 50 mg/kg po): 3.10 ± .55 mm of Hg
% Inhibition ([2]; Table 3, 75 mg/kg po): 37%
Paw Volume ± S.E. ([2]; Table 3, 75 mg/kg po): 2.26 ± .32 mm of Hg
% Inhibition ([2]; Table 3, 100 mg/kg po): 54%
Paw Volume ± S.E. ([2]; Table 3, 100 mg/kg po): 1.65 ± .36 mm of Hg
% Inhibition, Ser (serotonin; Table 4, 12.5 mg/kg ip): 26.1%
Wheal Measurement, Ser (serotonin; Table 4, 12.5 mg/kg ip): 8.2 mm
% Inhibition, Ser (serotonin; Table 4, 25 mg/kg ip): 51.4%
Wheal Measurement, Ser (serotonin; Table 4, 25 mg/kg ip): 5.4 mm
% Inhibition, Ser (serotonin; Table 4, 50 mg/kg ip): 68.5%
Wheal Measurement, Ser (serotonin; Table 4, 50 mg/kg ip): 3.5 mm
% Inhibition, Ser (serotonin; Table 5, 12.5 mg/kg po): 23.3%
Wheal Measurement, Ser (serotonin; Table 5, 12.5 mg/kg po): 7.9 mm
% Inhibition, Ser (serotonin; Table 5, 25 mg/kg po): 42.7%
Wheal Measurement, Ser (serotonin; Table 5, 25 mg/kg po): 5.9 mm
% Inhibition, Ser (serotonin; Table 5, 50 mg/kg po): 61.1%
Wheal Measurement, Ser (serotonin; Table 5, 50 mg/kg po): 4.0 mm

IC50 [1]: 10 µM
SMILES: COc1ccc(/C=C/c2ccc3c(=O)n(CCCCN(C)C)ncc3c2)cc1 [Example IX, Trans-6-[2-(4-methoxyphenyl)ethenyl]-2-[4-dimethylamino)butyl]phthalazin-1(2H)-one bromide]
